From patent US20100093985A1, “USE OF AT LEAST ONE CYTOSOLIC PHOSPHOLIPASE A2 INHIBITOR AS A MEDICINE FOR SYMPTOMATIC TREATMENT OF MUCOVISCIDOSIS” (INSTITUT PASTEUR, priority 2006, published 2010)

Test system: CFTR+/+ and CFTR−/− mice
Test: Production of mucus in the airways of mice (alcian blue score), with or without LPS from P. aeruginosa
Assay type: in vivo, mouse
Details: for Average Score (production of mucus in the airways): D4
Protocol: The studies were carried out on a cystic fibrosis model established in C57BL/6J mice (Cftr^tmUNC mice) kept on a mixed gene pool by the “Centre de Distribution, de Typage et d'Archivage Animal” UPS44 CNRS in Orléans. Wild-type CFTR^+/+ and mutant CFTR^−/− mice were weaned at 3-4 weeks and fed with food supplemented with a commercial laxative, Movicol®. Without laxative CFTR^−/− mice die rapidly after weaning due to bowel obstructions resulting from a change in the secretion of fluids in the digestive tract.
The experiments were conducted on groups of at least 5 mice aged 5-7 weeks for each category of treatment.
The products used were dissolved in an injectable saline solution (or physiological saline) and injected by intratracheal (i.t.) or intraperitoneal (i.p.) route.
The use protocol was as follows:
1) Aspirin (50 mg/kg, i.p.), 30 minutes before LPS, then each day, once a day;
2) ATK (20 mg/kg, i.p.), 30 minutes before LPS and 24 hours after.
The mice were anesthetized with 2% xylazine (8 mg/kg) and ketamine 1000 (40 mg/kg) before the infusion of LPS (330 μg/kg, i.t.).
Bronchoalveolar lavages (BALs) and lung samplings were carried out 4 days after the infusion of LPS, as indicated below:
The lungs were infused with 4% formaldehyde to remove the blood and immersed in 4% formaldehyde for 48 hours at 4° C. before being added to paraffin.
Sections 5 μm thick were stained with hemotoxylin/eosin, periodic acid-Schiff (PAS) and alcian blue (AB; pH 2.4) according to standard methods (Histologie Normale et Pathologique. P. GANTER & G. Jolies, Gauthier-Villars).
After microscopic examination of the sections stained with alcian blue, which colours the mucus, the positive bronchi and cells were counted. The “number of positive bronchi/number of positive cells” ratio makes it possible to establish the score which serves to evaluate the results of the mucus production studies (see below).

Compound: CC(=O)Oc1ccccc1C(=O)O [asp, aspirin]
- Average Score (production of mucus in the airways) (CFTR+/+ mice, LPS 330 μg/kg i.t. + aspirin 50 mg/kg i.p.): 0
- Average Score (production of mucus in the airways) (CFTR+/+ mice, control (physiological saline, no LPS) + aspirin 50 mg/kg i.p.): 0.25
- secretion of mucus (CFTR−/− mice stimulated by infusion with LPS of Pseudomonas aeruginosa): inhibited
- Average Score (production of mucus in the airways) (CFTR−/− mice, LPS 330 μg/kg i.t. + aspirin 50 mg/kg i.p.): 0
- Average Score (production of mucus in the airways) (CFTR−/− mice, control (physiological saline, no LPS) + aspirin 50 mg/kg i.p.): 0.50
